Measurements taken from the supplement of paper PMC11061612.

Legend:
[1] = system: NKM-1 (Acute Myeloid Leukemia); assay: combination Emax (second highest fraction inhibited in the dose matrix, 72 h); higher = more inhibition; extreme values may be limits of the assay
How it was run: (§1)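 Cell lines in DMEM/F12 or RPMI with 10% FBS were plated in 1536-well plates, held 24 hours at 37°C, 5% CO2, then given two-drug dose matrices for 72 hours (DMSO typically 0.2%). Viability was read by CellTiter-Glo 2.0 luminescence and scaled as inhibition from 0 (vehicle wells) to 1 (blank wells). Combination Emax is the second-highest inhibition in the matrix; Bliss excess is observed combination effect minus expected EA + EB − EA·EB, EA and EB being single-agent effects.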

[2] = system: RL95-2 (Endometrial Carcinoma); assay: as above
How it was run: as §1

[3] = system: RERF-LC-KJ (Lung Adenocarcinoma); assay: Bliss excess, mean over the matrix (fraction); higher = more synergy
How it was run: as §1

[4] = system: NKM-1 (Acute Myeloid Leukemia); assay: as above
How it was run: as §1

[5] = system: RT4 (Bladder Carcinoma); assay: as above
How it was run: as §1

[6] = system: PC-14 (Lung Adenocarcinoma); assay: as above
How it was run: as §1

[7] = system: Caov-3 (Ovarian Carcinoma); assay: as above
How it was run: as §1

[8] = system: 786-0 (Kidney Carcinoma); assay: as above
How it was run: as §1

[9] = system: SW684 (Other Solid Carcinomas); assay: as above
How it was run: as §1

[10] = system: LOUCY (T-Lymphoblastic Leukemia); assay: as above
How it was run: as §1

[11] = system: AN3-CA (Endometrial Carcinoma); assay: as above
How it was run: as §1

[12] = system: SNU-175 (Colorectal Carcinoma); assay: as above
How it was run: as §1

[13] = system: RMG-I (Ovarian Carcinoma); assay: as above
How it was run: as §1

[14] = system: PANC-02-03 (Pancreatic Carcinoma); assay: as above
How it was run: as §1

[15] = system: BALL-1 (B-Lymphoblastic Leukemia); assay: as above
How it was run: as §1

[16] = system: HTC-C3 (Thyroid Gland Carcinoma); assay: as above
How it was run: as §1

[17] = system: OCI-AML5 (Acute Myeloid Leukemia); assay: as above
How it was run: as §1

[18] = system: ES-2 (Ovarian Carcinoma); assay: as above
How it was run: as §1

[19] = system: NCI-H810 (Non-Small Cell Lung Carcinoma); assay: as above
How it was run: as §1

[20] = system: NCI-H1563 (Lung Adenocarcinoma); assay: as above
How it was run: as §1
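Throughout, for Bliss excess, mean over the matrix: after 72 h of two-drug dosing.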

Row | SMILES | combination Emax [1] | combination Emax [2] | Bliss excess [3] | Bliss excess [4] | Bliss excess [5] | Bliss excess [6] | Bliss excess [7] | Bliss excess [8] | Bliss excess [9] | Bliss excess [10] | Bliss excess [11] | Bliss excess [12] | Bliss excess [13] | Bliss excess [14] | Bliss excess [15] | Bliss excess [16] | Bliss excess [17] | Bliss excess [18] | Bliss excess [19] | Bliss excess [20]
1 | CCN(CCO)CCCOc1ccc2c(Nc3cc(CC(=O)Nc4cccc(F)c4)[nH]n3)ncnc2c1 [AZD2811] + O=C(c1cc(Cc2n[nH]c(=O)c3ccccc23)ccc1F)N1CCN(C(=O)C2CC2)CC1 [Olaparib] (first compound max 1 µM, 7x7, partner max 10 µM) | 0.723 | 0.73 | -0.0471 | 0.0342 | 0.0243 | 0.0228 | -0.0444 | -0.0274 | -0.0219 | -0.0463 | -0.0011 | -0.0141 | -0.0141 | 0.0133 | 0.147 | -0.0101 | -0.0224 | -0.0182 | -0.016 | -0.0221
2 | Cc1c2c(nn1C)CSCc1cc(n(C)n1)CSc1cc(c3ccccc3c1)OCCCc1c(C(=O)O)n(C)c3c-2c(Cl)ccc13 [AZD5991] + C[C@@H](Nc1cc(F)cc(F)c1)c1cc(C(=O)N(C)C)cc2c(=O)cc(N3CCOCC3)oc12 [AZD8186] (first compound max 1 µM, 7x7, partner max 3 µM) | 1 | 0.95 | 0.0598 | -0.0247 | 0.0434 | 0.0129 | 0.0338 | 0.0005 | -0.0553 | -0.0772 | 0.0606 | 0.0048 | -0.0247 | -0.0327 | -0.0163 | -0.014 | -0.0146 | -0.0108 | -0.034 | 0.0003
3 | CC1(C)CCC(CN2CCN(c3ccc(C(=O)NS(=O)(=O)c4ccc(NCC5CCOCC5)c([N+](=O)[O-])c4)c(Oc4cnc5[nH]ccc5c4)c3)CC2)=C(c2ccc(Cl)cc2)C1 [Venetoclax] + C[C@@H]1COCCN1C2=NC(=NC(=C2)C3(CC3)[S@](=N)(=O)C)C4=C5C=CNC5=NC=C4 [AZD6738] (first compound max 1 µM, 7x7, partner max 10 µM) | 1 | 0.691 | -0.0036 | -0.0143 | -0.0281 | -0.021 | -0.0574 | -0.0882 | -0.0138 | -0.0462 | -0.0068 | -0.0392 | -0.0178 | -0.0199 | 0.0053 | -0.0354 | 0.0391 | -0.0372 | -0.0356 | 0.0131
4 | COc1cccc(OCCCN)c1-c1cc(Nc2cnc(C#N)cn2)n[nH]1 [Prexasertib] + O=C(c1cc(Cc2n[nH]c(=O)c3ccccc23)ccc1F)N1CCN(C(=O)C2CC2)CC1 [Olaparib] (first compound max 1 µM, 7x7, partner max 10 µM) | 0.902 | 0.882 | -0.0597 | -0.0706 | 0.0044 | -0.0478 | -0.0138 | -0.0427 | -0.0742 | -0.0422 | -0.0523 | 0.0762 | -0.124 | -0.0932 | -0.0145 | -0.0615 | -0.045 | -0.102 | -0.0082 | -0.037
5 | CC1(C)CCC(CN2CCN(c3ccc(C(=O)NS(=O)(=O)c4ccc(NCC5CCOCC5)c([N+](=O)[O-])c4)c(Oc4cnc5[nH]ccc5c4)c3)CC2)=C(c2ccc(Cl)cc2)C1 [Venetoclax] + C=CCn1c(=O)c2cnc(Nc3ccc(N4CCN(C)CC4)cc3)nc2n1-c1cccc(C(C)(C)O)n1 [AZD1775] (first compound max 1 µM, partner max 1 µM) | 0.995 | 0.475 | -0.0394 | -0.0087 | 0.0364 | -0.0027 | 0.0265 | -0.0686 | 0.032 | 0.0193 | -0.0253 | -0.0735 | -0.0409 | -0.0699 | 0.0171 | -0.065 | -0.0397 | -0.0297 | -0.0873 | 0.0451
6 | Cc1c2c(nn1C)CSCc1cc(n(C)n1)CSc1cc(c3ccccc3c1)OCCCc1c(C(=O)O)n(C)c3c-2c(Cl)ccc13 [AZD5991] + C=CCn1c(=O)c2cnc(Nc3ccc(N4CCN(C)CC4)cc3)nc2n1-c1cccc(C(C)(C)O)n1 [AZD1775] (first compound max 1 µM, partner max 1 µM) | 0.979 | 1 | 0.0255 | -0.0519 | 0.0351 | -0.001 | -0.0274 | -0.0387 | -0.0161 | -0.003 | -0.0512 | -0.0185 | -0.0369 | -0.0195 | -0.0181 | 0.0091 | -0.0036 | -0.0399 | 0.0025 | 0.0004
7 | CN(CCO)CC[C@H](CSc1ccccc1)Nc1ccc(S(=O)(=O)NC(=O)c2ccc(N3CCC([C@@H](O)c4ccccc4-c4ccc(Cl)cc4)CC3)cc2)cc1S(=O)(=O)C(F)(F)F [AZD4320] + C=CCn1c(=O)c2cnc(Nc3ccc(N4CCN(C)CC4)cc3)nc2n1-c1cccc(C(C)(C)O)n1 [AZD1775] (first compound max 1 µM, partner max 1 µM) | 1 | 0.53 | -0.0076 | 0.035 | 0.0755 | 0.0069 | 0.0779 | -0.0685 | -0.0416 | 0.002 | -0.0004 | -0.0371 | 0.0664 | 0.0045 | 0.0065 | 0.08 | 0.0099 | 0.0065 | 0.0105 | -0.0024
8 | CN(CCO)CC[C@H](CSc1ccccc1)Nc1ccc(S(=O)(=O)NC(=O)c2ccc(N3CCC([C@@H](O)c4ccccc4-c4ccc(Cl)cc4)CC3)cc2)cc1S(=O)(=O)C(F)(F)F [AZD4320] + Cc1cc2ncnn2cc1Nc1ncc2c(n1)n(C1CCOCC1)c(=O)n2C [AZD7648] (first compound max 1 µM, 7x7, partner max 10 µM) | 1 | 0.0598 | -0.0314 | 0.0153 | -0.004 | -0.0188 | -0.0199 | -0.0428 | -0.0628 | 0.0365 | -0.0057 | -0.006 | -0.0676 | -0.0568 | 0.0087 | 0.0016 | 0.0193 | -0.0186 | 0.004 | -0.0322
9 | Cc1c2c(nn1C)CSCc1cc(n(C)n1)CSc1cc(c3ccccc3c1)OCCCc1c(C(=O)O)n(C)c3c-2c(Cl)ccc13 [AZD5991] + CN(C)CCCOc1ccc(-c2ccc3ncc4c(c3c2)n(C2CCOCC2)c(=O)n4C)cn1 [AZD0156] (first compound max 1 µM, 7x7, partner max 1 µM) | 0.967 | 0.977 | -0.0296 | -0.152 | 0.0149 | 0.0236 | 0.0036 | -0.0109 | -0.0222 | 0.0428 | -0.0338 | -0.0515 | 0.0092 | -0.0241 | 0.0361 | -0.0082 | 0.0075 | 0.0018 | -0.0034 | -0.009
10 | CCN(CCO)CCCOc1ccc2c(Nc3cc(CC(=O)Nc4cccc(F)c4)[nH]n3)ncnc2c1 [AZD2811] + C[C@@H]1COCCN1C2=NC(=NC(=C2)C3(CC3)[S@](=N)(=O)C)C4=C5C=CNC5=NC=C4 [AZD6738] (first compound max 1 µM, 7x7, partner max 10 µM) | 0.879 | 0.773 | -0.0512 | 0.0425 | -0.0318 | -0.0492 | -0.0747 | -0.0465 | -0.073 | -0.0518 | -0.0315 | -0.07 | -0.0734 | -0.101 | 0.0288 | -0.0273 | -0.0299 | -0.0445 | -0.0764 | -0.0114
11 | Cc1c2c(nn1C)CSCc1cc(n(C)n1)CSc1cc(c3ccccc3c1)OCCCc1c(C(=O)O)n(C)c3c-2c(Cl)ccc13 [AZD5991] + C[C@@H]1COCCN1C2=NC(=NC(=C2)C3(CC3)[S@](=N)(=O)C)C4=C5C=CNC5=NC=C4 [AZD6738] (first compound max 1 µM, 7x7, partner max 10 µM) | 0.995 | 1 | 0.0331 | 0.024 | 0.0537 | 0.0229 | 0.0293 | -0.0098 | 0.0472 | -0.0398 | 0.0454 | 0.135 | 0.0575 | 0.0205 | 0.0406 | -0.0103 | -0.0011 | 0.0424 | 0.0552 | 0.0224
12 | C[C@@H]1COCCN1c1cc(C2([S@](C)(=N)=O)CC2)nc(-c2ccnc3[nH]ccc23)n1 [AZD6738] + O=C(c1cc(Cc2n[nH]c(=O)c3ccccc23)ccc1F)N1CCN(C(=O)C2CC2)CC1 [Olaparib] (first compound max 10 µM, 7x7, partner max 10 µM) | 0.902 | 0.641 | 0.0228 | -0.0366 | 0.0357 | 0.0132 | -0.0231 | 0.0473 | -0.0144 | -0.0284 | 0.0208 | 0.0311 | 0.0255 | 0.0287 | -0.0204 | 0.0226 | -0.0071 | -0.0136 | -0.008 | -0.0116
13 | COc1cccc(OCCCN)c1-c1cc(Nc2cnc(C#N)cn2)n[nH]1 [Prexasertib] + C=CCn1c(=O)c2cnc(Nc3ccc(N4CCN(C)CC4)cc3)nc2n1-c1cccc(C(C)(C)O)n1 [AZD1775] (first compound max 1 µM, partner max 1 µM) | 0.956 | 0.957 | 0.0487 | 0.056 | 0.128 | 0.0069 | -0.0546 | 0.0707 | 0.0798 | 0.0578 | 0.0766 | 0.0595 | 0.0265 | 0.0504 | 0.0618 | 0.145 | 0.063 | 0.0006 | 0.0869 | -0.0101
14 | Cc1c2c(nn1C)CSCc1cc(n(C)n1)CSc1cc(c3ccccc3c1)OCCCc1c(C(=O)O)n(C)c3c-2c(Cl)ccc13 [AZD5991] + CC1(C)CCC(CN2CCN(c3ccc(C(=O)NS(=O)(=O)c4ccc(NCC5CCOCC5)c([N+](=O)[O-])c4)c(Oc4cnc5[nH]ccc5c4)c3)CC2)=C(c2ccc(Cl)cc2)C1 [Venetoclax] (first compound max 1 µM, 7x7, partner max 1 µM) | 0.999 | 0.943 | 0.0047 | 0.0517 | 0.135 | 0.0054 | 0.0262 | -0.034 | -0.0596 | 0.154 | 0.111 | 0.107 | -0.0289 | -0.0304 | 0.117 | -0.0396 | 0.0667 | -0.0082 | -0.0267 | 0.0236
